Test results from PubChem BioAssay (NCI).
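48-hour exposure; five concentrations; linearly interpolated endpoints. Abbreviation: GI50, concentration required for 50% inhibition of growth. At the TGI there is no net growth.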

Experiments:
Assay in all cases: DTP human tumour cell line panel, 48 h
[1] = test system: DU-145 prostate
[2] = test system: HT29 colon
[3] = test system: NCI-H460 lung
[4] = test system: NCI/ADR-RES ovarian
[5] = test system: PC-3 prostate
[6] = test system: SNB-75 CNS
[7] = test system: T-47D breast
[8] = test system: U251 CNS
[9] = test system: UACC-257 melanoma
[10] = test system: UACC-62 melanoma

Cc1cc(Nc2cc(N)ncn2)c(=O)n2c1C(=O)NC21CCCCC1
GI50 [1]: > 100 µM | TGI [1]: > 100 µM | GI50 [2]: > 100 µM | TGI [2]: > 100 µM | GI50 [3]: > 100 µM | TGI [3]: > 100 µM | GI50 [4]: > 100 µM | TGI [4]: > 100 µM | GI50 [5]: > 100 µM | TGI [5]: > 100 µM | GI50 [6]: 9.32 µM | TGI [6]: > 100 µM | GI50 [7]: > 100 µM | TGI [7]: > 100 µM | GI50 [8]: 83.7 µM | TGI [8]: > 100 µM | GI50 [9]: > 100 µM | TGI [9]: > 100 µM | GI50 [10]: > 100 µM | TGI [10]: > 100 µM

CCCCCCCCCCCCCCCCCC(=O)Nc1ccn(C2OC(CO)C(O)C2O)c(=O)n1 (stereo not given)
TGI [1]: > 100 µM | TGI [2]: > 100 µM | TGI [3]: > 100 µM | TGI [4]: > 100 µM | TGI [5]: > 100 µM | TGI [6]: > 94.6 µM | TGI [7]: > 100 µM | TGI [8]: > 100 µM | TGI [9]: > 100 µM | TGI [10]: > 100 µM

Cc1c([N+](=O)[O-])oc2ccc3ccccc3c12
TGI [1]: 83.7 µM | TGI [2]: > 100 µM | TGI [3]: > 100 µM | TGI [4]: > 100 µM | TGI [5]: > 100 µM | TGI [6]: > 100 µM | TGI [7]: > 100 µM | TGI [8]: > 100 µM | TGI [9]: > 100 µM | TGI [10]: > 100 µM

O=C(/C=C\c1ccccc1)N1CCc2ccccc2C1
TGI [1]: > 100 µM | TGI [2]: > 100 µM | TGI [3]: > 100 µM | TGI [4]: > 100 µM | TGI [5]: > 100 µM | TGI [6]: > 100 µM | TGI [7]: > 100 µM | TGI [8]: > 100 µM | TGI [9]: > 100 µM | TGI [10]: > 100 µM

O=C(NC(=S)Nc1cc(Cl)ccc1O)c1cccc(Br)c1
GI50 [1]: 12.3 µM | TGI [1]: > 100 µM | GI50 [2]: 69.3 µM | TGI [2]: > 100 µM | GI50 [3]: 4.42 µM | TGI [3]: > 100 µM | GI50 [4]: 5.77 µM | TGI [4]: 98 µM | GI50 [5]: 6.78 µM | TGI [5]: > 100 µM | GI50 [6]: 11.8 µM | TGI [6]: 75.8 µM | GI50 [7]: 3.71 µM | TGI [7]: > 100 µM | GI50 [8]: 3.95 µM | TGI [8]: > 100 µM | GI50 [9]: 15.3 µM | TGI [9]: > 100 µM | GI50 [10]: 6.24 µM | TGI [10]: > 100 µM

Cc1cc(I)cc(CN(C)CCCN2CCN(C)CC2)c1O
GI50 [1]: 75 µM | TGI [1]: > 100 µM | GI50 [2]: 13.7 µM | TGI [2]: 41.2 µM | GI50 [3]: 32.8 µM | TGI [3]: > 100 µM | GI50 [4]: 77.8 µM | TGI [4]: > 100 µM | GI50 [5]: 52.2 µM | TGI [5]: > 100 µM | GI50 [6]: 31.5 µM | TGI [6]: > 100 µM | GI50 [7]: 28.7 µM | TGI [7]: 91.1 µM | GI50 [8]: 30.9 µM | TGI [8]: > 100 µM | GI50 [9]: 35 µM | TGI [9]: > 57.5 µM | GI50 [10]: 6.89 µM | TGI [10]: 19.3 µM
